Experimental data as given in patent US11351178B2, “Selective HDAC6 inhibitors” (ITALFARMACO S.P.A., priority 2017, dated 2022).
Read-outs that look alike come from different tables or passages of the source.

How the values were obtained:
recombinant human HDAC6 = molecular target: T1, recombinant human HDAC6 (Homo sapiens, UniProt Q9UBN7); experiment: Enzymatic screening on recombinant human HDAC6; type: biochemical; details: Table 2; read-out: HDAC6 IC50
T1 sequence (Q9UBN7 1-1215): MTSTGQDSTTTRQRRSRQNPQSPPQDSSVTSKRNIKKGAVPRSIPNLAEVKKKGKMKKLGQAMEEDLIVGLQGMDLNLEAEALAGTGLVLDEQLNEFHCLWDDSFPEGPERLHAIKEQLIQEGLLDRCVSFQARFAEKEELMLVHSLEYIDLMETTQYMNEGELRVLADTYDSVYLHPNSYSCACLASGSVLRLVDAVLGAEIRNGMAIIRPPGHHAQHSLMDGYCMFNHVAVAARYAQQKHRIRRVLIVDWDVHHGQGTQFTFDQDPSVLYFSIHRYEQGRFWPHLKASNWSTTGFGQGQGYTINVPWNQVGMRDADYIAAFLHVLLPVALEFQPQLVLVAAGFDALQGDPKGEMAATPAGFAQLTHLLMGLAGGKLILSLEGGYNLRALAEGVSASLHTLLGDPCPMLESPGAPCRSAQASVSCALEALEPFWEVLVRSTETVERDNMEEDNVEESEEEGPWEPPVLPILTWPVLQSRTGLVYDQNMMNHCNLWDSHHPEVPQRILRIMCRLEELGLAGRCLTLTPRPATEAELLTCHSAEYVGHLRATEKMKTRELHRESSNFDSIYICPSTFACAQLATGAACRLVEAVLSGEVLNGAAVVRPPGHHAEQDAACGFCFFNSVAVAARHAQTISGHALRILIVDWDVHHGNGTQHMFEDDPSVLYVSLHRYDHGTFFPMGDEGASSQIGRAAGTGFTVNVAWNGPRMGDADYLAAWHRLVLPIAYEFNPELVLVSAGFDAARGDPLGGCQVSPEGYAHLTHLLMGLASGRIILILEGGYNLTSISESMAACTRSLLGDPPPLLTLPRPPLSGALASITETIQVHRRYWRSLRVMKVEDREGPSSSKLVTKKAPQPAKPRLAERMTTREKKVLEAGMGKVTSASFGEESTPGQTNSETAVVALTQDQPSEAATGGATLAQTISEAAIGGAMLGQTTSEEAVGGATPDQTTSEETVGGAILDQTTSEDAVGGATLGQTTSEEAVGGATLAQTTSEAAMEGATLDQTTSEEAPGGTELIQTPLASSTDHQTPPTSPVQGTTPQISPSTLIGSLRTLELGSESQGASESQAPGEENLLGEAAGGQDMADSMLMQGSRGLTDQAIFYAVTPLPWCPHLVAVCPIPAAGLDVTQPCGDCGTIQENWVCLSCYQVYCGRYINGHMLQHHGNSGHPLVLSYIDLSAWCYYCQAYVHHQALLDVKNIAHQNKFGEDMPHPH
Method in brief: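 Buffer for substrate addition: 25 mM Tris-HCl pH 8, 130 mM NaCl, 0.05% Tween-20, 10% glycerol, substrate 2× concentrated (FdL, FdL-Green or trifluoroacetyl-lysine). Recombinant human HDAC was preincubated with compound at 30 °C beforehand, timing isoform-dependent, and the reaction was likewise run at 30 °C.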

[1] = tested on: B 697 promyelocytic cell line; experiment: Cytotoxicity on 697 cell line (CellTiter 96); type: cell-based; details: 72 hours incubation, read-out: 697 TOXICITY
Method in brief: (§1)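 Cells seeded (2×10^4/well for 697, 5×10^5/well for PBMCs); compounds added after 24 h at 1–10000 nM (697) or 1.5–10000 nM (PBMCs) and incubated 72 h. Viability read by CellTiter 96 Aqueous One tetrazolium assay of mitochondrial function.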

[2] = Stability to Phase I metabolism in rat S9 liver fraction; type: in vitro ADME; details: after 90 min, 37° C.
Method in brief: (§2)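 Compounds were incubated with rat or human liver S9 fraction at 37 °C for up to 90 min. Reactions were quenched on ice with acidified acetonitrile and analysed by HPLC-UV or LC-MS/MS. Percent remaining versus time zero and intrinsic clearance were calculated.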

[3] = Stability in human plasma; type: in vitro ADME; details: after 4 hours, 37° C.
Method in brief: (§3)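 Compounds incubated at 37° C in rat or human plasma at 50 μM (UV/HPLC) or 1 or 2 μM (LC-MS/MS) for 0–4 h. Reaction stopped with acidified acetonitrile on ice; percent remaining versus initial amount and plasma half-life calculated.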

Stability in rat plasma = type: in vitro ADME; details: after 4 hours, 37° C.
Method in brief: as §3

[4] = tested on: peripheral blood mononuclear cells (PBMCs); experiment: Cytotoxicity on PBMCs (CellTiter 96); type: cell-based; details: PBMC, 72 h; read-out: PBMC TOXICITY (72 h)
Method in brief: as §1

[5] = Stability to Phase I metabolism in human S9 liver fraction; type: in vitro ADME; details: human, 90 min, pH 7.4
Method in brief: as §2

human PBMCs = experiment: Mixed Lymphocytes Reaction (MLR) with human PBMCs (IFN-γ, TNF-α, IL-6); type: cell-based; details: PBMC, 144 h, two-way MLR, 6 days, 0.05 μM, negative = induction
Method: In order to study HDAC6 inhibitors ability to inhibit the activation of allogenic T CD4+ cells, a Mixed Lymphocytes Reaction (MLR or mixed lymphocyte culture, CLM) assay was performed. This is a reaction involving blast transformation of in vitro cultured lymphocytes in the presence of allogeneic lymphocytes. There is the so-called “two-way” reaction wherein the two lymphocyte populations stimulate each other to proliferate, and the so-called “one way” reaction, wherein the proliferation of one of the two populations is inhibited by mitomycin C or irradiation, these cells provide proliferation stimulus (stimulator) to the so-called “responder” cells.
Human peripheral blood mononuclear cells (PBMCs) used in MLR were obtained by Ficoll gradient separation from Buffy Coat of healthy donors.
We used a two-way MLR. The cells from the two donors were plated at 1:1 ratio (allogenic stimulation) to the final concentration of 2×10^5 per well in U-bottom 96 well plates in RPMI 1640 medium with 10% FBS and antibiotics. As a control we individually plated the cells from each donor (singenic stimulus). The experiment for each inhibitor was set in deduplicate for allogeneic stimuli and in quintuplicate for singenic stimuli. The cells were cultured for 6 days in an incubator at 37° C.
After 6 days the effect of the test compounds was evaluated by measuring the production of pro-inflammatory cytokines recognized to be characteristics of this assay.
For this purpose, the culture supernatant was harvested and used for IFN-γ, TNF-α and IL-6 inflammatory cytokine assay.
The JAK inhibitor ruxolitinib was used as the active reference compound in the test.
Values in the table indicate the inhibition percentages. Negative values indicate an induction.

| Structure (SMILES) | IC50 (recombinant human HDAC6) [nM] | IC50 [1] [nM] | residual percentage in rat S9 fraction [2] [%] | residual percentage in human plasma [3] [%] | residual percentage in rat plasma (Stability in rat plasma) [%] | IC50 [4] [nM] | residual percentage in human S9 fraction [5] [%] | inhibition at 0.05 µM (human PBMCs; read-out: MLR IFN-γ inhibition percentage) [%] | inhibition at 0.05 µM (human PBMCs; read-out: MLR IL-6 inhibition percentage) [%] | inhibition at 0.05 µM (human PBMCs; read-out: MLR TNF-α inhibition percentage) [%] |
| --- | --- | --- | --- | --- | --- | --- | --- | --- | --- | --- |
| CC1(C)CC(=O)c2c(S(C)(=O)=O)sc(-c3nnn(Cc4ccc(C(=O)NO)cc4)n3)c2C1 [compound 74] | 17 | 2280 | 61 | 100 | 94 | 2000 | 84 | – | – | – |
| CN(C)S(=O)(=O)c1ccc(F)c(-c2nnc(Sc3ccc(C(=O)NO)cc3)n2C)c1 [compound 76] | 28 | > 10000 | 76 | 96 | 98 | > 10000 | 77 | – | – | – |
| O=C(NO)c1ccc(Cc2noc(-c3ccccc3)n2)cc1 [compound 189, 4-[(5-phenyl-1,2,4-oxadiazol-3-yl)methyl]benzenecarbohydroxamic acid] | 9 | 291 | 5 | 100 | 78 | 1050 | 72 | – | – | – |
| O=C(NO)c1ccc(Cc2nnc(-c3ccccc3)s2)cc1 [compound 190, 4-[(5-phenyl-1,3,4-thiadiazol-2-yl)methyl]benzenecarbohydroxamic acid] | 3 | 333 | 9 | 99 | 73 | 983 | 64 | – | – | – |
| N#CC[C@H](C1CCCC1)n1cc(-c2ncnc3[nH]ccc23)cn1 [ruxolitinib, reference compound] | – | – | – | – | – | – | – | 87.9 | 73.3 | 61.2 |
